Among the data in BindingDB's records for doi:10.1007/s00210-003-0860-y (UniversitÄT WÜRzburg, 2004) are Ki values, retold here.

Structures can show the parent of a compound that is named as a salt.

In experiment [1] the target is Beta-3 adrenergic receptor (Homo sapiens, UniProt P13945).
Experiment [2] has as its target Beta-2 adrenergic receptor (Homo sapiens, UniProt P07550).

Beta-3 adrenergic receptor, sequence (P13945 whole entry): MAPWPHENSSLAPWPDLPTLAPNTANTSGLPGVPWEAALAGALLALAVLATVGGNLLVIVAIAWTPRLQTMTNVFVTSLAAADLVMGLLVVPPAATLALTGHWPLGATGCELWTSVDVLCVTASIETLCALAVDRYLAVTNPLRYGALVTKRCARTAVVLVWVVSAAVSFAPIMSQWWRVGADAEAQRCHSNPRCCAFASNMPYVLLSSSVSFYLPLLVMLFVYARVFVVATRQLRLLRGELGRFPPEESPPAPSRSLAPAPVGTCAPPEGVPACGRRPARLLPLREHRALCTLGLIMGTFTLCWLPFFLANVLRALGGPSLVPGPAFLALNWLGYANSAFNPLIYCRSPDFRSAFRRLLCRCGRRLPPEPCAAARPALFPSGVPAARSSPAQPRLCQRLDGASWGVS
Beta-2 adrenergic receptor, sequence (P07550 whole entry): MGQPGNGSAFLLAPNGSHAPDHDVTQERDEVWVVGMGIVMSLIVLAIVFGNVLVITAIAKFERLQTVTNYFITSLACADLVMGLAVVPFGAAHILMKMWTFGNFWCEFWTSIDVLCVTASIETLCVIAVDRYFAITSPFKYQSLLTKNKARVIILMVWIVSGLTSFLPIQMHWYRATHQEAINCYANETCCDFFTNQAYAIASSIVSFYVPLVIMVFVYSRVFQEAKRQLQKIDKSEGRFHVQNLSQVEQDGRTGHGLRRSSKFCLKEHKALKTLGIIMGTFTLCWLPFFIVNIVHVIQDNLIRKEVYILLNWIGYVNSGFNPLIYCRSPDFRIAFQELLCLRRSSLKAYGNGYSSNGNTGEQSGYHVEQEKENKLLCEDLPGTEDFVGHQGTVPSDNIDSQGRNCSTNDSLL

In experiment [1], `CC(C)(C)NCC(O)c1cc(O)cc(O)c1` (racemic) [Terbutaline,(+/-)] yielded a Ki above 10 µM.
Take `CC(C)(C)NCC(O)COc1cccc2[nH]c(=O)[nH]c12` (centres undefined) [4-[3-(tert-butylamino)-2-hydroxypropoxy]-2,3-dihydro-1H-1,3-benzodiazol-2-one hydrochloride]: in experiment [1], the Ki came out at 0.0771 µM.
`CC(Cc1ccc(OCC(=O)O)cc1)NCC(O)c1cccc(Cl)c1` (centres undefined) [CAS_2437] showed a Ki in experiment [2] of 9.17 µM.
`CCc1ccccc1OC[C@@H](O)CN[C@H]1CCCc2ccccc21` [CAS_174689-39-5]: the results for the Ki in experiment [1] and in experiment [2] were 0.122 µM and 0.0619 µM, respectively.
In experiment [1], `CNCC(O)c1ccc(O)c(O)c1` (centres undefined) [EPINEPHRINE] had a Ki above 10 µM.
For `CC(C)(C)NCC(O)c1cc(Br)no1` (centres undefined) [NSC_71149], the Ki in experiment [1] is 3.99 µM; in experiment [2], 1.29 µM.
In experiment [1], `OCc1cc(C(O)CNCCCCCCOCCCCc2ccccc2)ccc1O` (centres undefined) [salmeterol xinafoate] came in with a Ki of 7.18 µM.

As usually defined, the Ki is a dissociation constant, usually derived from enzyme kinetics or from competition with a known ligand. A lower Ki goes with a stronger hold on the target.
